Laboratory results reported in patent US20190369122A1, “METABOLIC DISORDERS” (priority 2016, published 2019).

What was measured:
[1] = test system: GF mice; test: Intraperitoneal glucose tolerance test in GF mice; format: in vivo, mouse; conditions: 500 μg i.p. twice per day for 3 days
Procedure: (§1) An intraperitoneal glucose tolerance test (using 1 g glucose per kg body weight) was then performed after a 4 h fast. Blood glucose levels were measured from tail blood using HemoCue201+analyzer (HemoCue, Angelholm, Sweden). Liver and plasma samples were collected after a 4 h fast. Mice were under isoflurane anesthesia and killed by cervical dislocation. Fresh liver was taken and snap-frozen in liquid nitrogen and stored at −80° C. until protein extraction.

[2] = test system: G6pase, Pepck, Srebp1c, Fasn, Irs1, Irs2; test: Hepatic gene expression in GF mice (real-time PCR); format: in vivo, mouse; conditions: 500 μg i.p. twice per day for 3 days
Procedure: as §1
Mouse liver was homogenized in RLT buffer with ([…] using TissueLyser (Qiagen, Hilden, Germany). RNA was isolated using the RNeasy Minikit (Qiagen) and reverse transcribed to synthesize cDNA using High Capacity cDNA Reverse Transcription Kit (Applied Biosystems, Foster City, Calif., USA) according to the manufacturer's protocol. Real-time PCR was performed using 1×SYBR Green Master Mix (Thermo Scientific, Waltham, Mass., USA) using the following primers.

[3] = test system: insulin signaling components; test: Immunoblot of liver lysates from GF mice; format: in vivo, mouse; conditions: 3-day treatment
Procedure: as §1
(§2) Snap-frozen liver and harvested cells were lysed in buffer containing 50 mM Tris-HCl (pH 7.4), 150 mM NaCl, 1 mM EDTA, 1 mM Na3VO4, 20 mM NaF, 10 mM glycerophosphate, 1 mM PMSF, 10% glycerol, 1% Triton X-100 and protease inhibitor cocktail. For immunoprecipitation, the cell lysates were obtained in 0.3% CHAPS-containing lysis buffer, sonicated and centrifuged at 20,000 g for 15 min at 4° C., and the supernatant was incubated with 20 μl of anti-FLAG beads (Sigma) at 4° C. for 4 h under gentle agitation.

[4] = test system: CONVR mice; test: Metabolic cages (PhenoMaster) in CONVR mice; format: in vivo, mouse; conditions: 100 μg i.p. twice a day for 3 days
Procedure: Mice were singly housed for two days before being transferred to the PhenoMaster cages, and allowed an additional 2 days to acclimatize to the new cage before taking measurements. Parameters were automatically measured every 15 min for 5 days. During the measurements, the mice had free access to water and food. […] Oxygen consumption (VO2) was calculated from measurements of oxygen and carbon dioxide concentration in the reference cage compared to the sample cage. Measurements of oxygen consumption and energy expenditure were adjusted to lean body mass, which was determined by MRI (EchoMRI, Houston, Tex., USA).

[5] = test system: primary hepatocytes; test: Insulin signaling in primary hepatocytes (immunoblot); format: cell-based, mouse
Procedure: as §2
(§3) Primary hepatocytes were isolated from C57BL/6J mice by digesting liver with perfusion of collagenase type IV as described previously. After perfusion, 16×10^5 cells were plated on collagen-coated 60 mm dishes in Dulbecco's modified Eagle's medium (DMEM)/F12 supplemented with fetal bovine serum (FBS), penicillin/streptomycin and 100 nM dexamethasone. After 4 h, the medium was changed to DMEM/F12 containing penicillin/streptomycin.

[6] = test system: amino acid-deprived primary hepatocytes; test: Amino acid-deprived primary hepatocytes (immunoblot); format: cell-based, mouse; conditions: absence of amino acids; 100 μM for 2 h
Procedure: as §3

[7] = test system: HEK293 cells; test: Signaling in HEK293 cells (immunoblot); format: cell-based, human
Procedure: as §2
HEK293 cells (ATCC CRL-1573) were grown and maintained in high-glucose (4.5 g/l glucose) DMEM with 10% (v/v) FBS. […] 24 h after transfection (with plasmids or siRNA as indicated), HEK293 cells cultured in poly-L-lysine-coated 60 mm dishes were rinsed twice with DMEM without FBS and incubated in serum-free DMEM for 18 h. HEK293 cells were then washed once with EBSS and incubated in EBSS for 1 h.

[8] = test system: mTORC1-Rag heterodimer complex-p62; test: Immunoprecipitation of FLAG mTOR: p62/Rag GTPases/mTORC1 complex formation; format: cell-based, human; conditions: HEK293; 100 μM, absence of amino acids, 1 h
Procedure: as §2
HEK293 cells (ATCC CRL-1573) were grown and maintained in high-glucose (4.5 g/l glucose) DMEM with 10% (v/v) FBS. All HEK293 cell experiments were performed in serum-starved and amino acid-deprived conditions. 24 h after transfection (with plasmids or siRNA as indicated), HEK293 cells cultured in poly-L-lysine-coated 60 mm dishes were rinsed twice with DMEM without FBS and incubated in serum-free DMEM for 18 h. HEK293 cells were then washed once with EBSS and incubated in EBSS for 1 h.

[9] = test system: IRS1; test: Ubiquitination of IRS1; format: cell-based; conditions: 6 h treatment
Procedure: Cells were lysed under denaturing condition with 100 μl buffer A containing 2% SDS, and the cell lysates were transferred to a 1.5-ml microcentrifuge tube. The tube was placed on a hot plate immediately at 95° C. for 10 min. The cell lysates were sonicated and 700 μl of buffer A without SDS was added. The samples were incubated at 4° C. for 30 min, followed by centrifugation (20,000 g, 20 min). The supernatant was incubated with 20 μl of anti-FLAG beads (Sigma) at 4° C. for 4 h under gentle agitation.

O=C(O)CCc1cnc[nH]1 [imidazole propionate]
glucose tolerance [1]: significant glucose intolerance
hepatic Irs1 and Irs2 mRNA levels [2]: no significant changes
hepatic expression of Srebp1c and Fasn [2]: did not affect
hepatic expression of G6pase and Pepck ([2]; vs controls): significantly increased
Akt phosphorylation, either S473 or T308, in liver [3]: no reduction
S6K1 phosphorylation in the liver [3]: increased
mTORC1 S2481 autophosphorylation in the liver [3]: without affecting
hepatic levels of IRS1 and IRS2 ([3]; 500 μg twice per day): reduced
hepatic levels of the insulin receptor (IR) ([3]; 500 μg twice per day): did not affect
energy expenditure in the early dark phase [4]: significantly reduced
total locomotor activity [4]: not significantly reduced
IRS protein levels ([5]; 100 μM for 8 h): did not affect
insulin-induced IRS1 Y612 phosphorylation ([5]; 100 μM for 8 h, insulin 5 nM): blunted
IRS protein levels ([5]; 100 μM for 20 h): reduced
basal Akt phosphorylation at both S473 and T308 ([5]; 8 h): induced
insulin-induced Akt S473 phosphorylation ([5]; 8 h, insulin 5 nM): reduced
insulin-induced Akt T308 phosphorylation ([5]; 8 h, insulin 5 nM): not
IRS1 level ([5]; 14 h): dramatic reduction
basal Akt phosphorylation at S473 and T308 ([5]; 14 h): increase
insulin-induced Akt S473 phosphorylation ([5]; 14 h): lower
insulin-induced Akt T308 phosphorylation ([5]; 14 h, vs vehicle): higher
S6K1 phosphorylation ([5]; ImP 100 μM): increased
p62 phosphorylation ([5]; ImP 100 μM for 24 h): induced
S6K1 phosphorylation [6]: strongly induced
S6K1 phosphorylation ([7]; HEK293, 100 μM for 1 h): induced
basal activation of Akt ([7]; HEK293, 8 h pretreatment): increased
responsiveness of Akt S473 to insulin ([7]; HEK293, 8 h pretreatment): reduced
lowest concentration with p62 phosphorylation activation ([7]; HEK293, absence of amino acids): 10 nM
p62 phosphorylation ([7]; HEK293, absence of amino acids, 1 and 2 h): concentration- and time-dependent increase
Akt phosphorylation ([7]; HEK293, compared with amino acids): induced
time to mTORC1 activation ([7]; absence of amino acids): ≥ 30 min
IRS1 S636/S639 phosphorylation ([7]; amino acid-deprived HEK293, 2 h): induced
IRS1 levels ([7]; amino acid-deprived HEK293, 8 h): dramatically reduced
IRS1 protein levels ([7]; amino acid-deprived cells, up to 2 h): not reduced
time to S6K1 phosphorylation ([7]; presence of amino acids): ≤ 30 min
formation of the mTORC1-Rag heterodimer complex-p62 [8]: induced
ubiquitination of IRS1 [9]: promoted
